Patent publication US4450269A, “Mono-5-substituted-3-chloro-4H-1,2,6-thiadiazin-4-one antifungal agents” (FMC Corporation, priority 1980, dated 1984)

Experiments:
[1] = test system: Botrytis cinerea; test: Spore germination test; type: cell-based; settings: BC, 48 hours
How it was run: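 Compound was delivered in acetone into water agar at final 40, 10, 2.5 and 1 ppm. Alternaria solani and Botrytis cinerea spores were applied as sterile-water suspensions, while Erysiphe polygoni and Uromyces phaseoli spores were brushed on from infected leaves. After 48 h at 24° C., percentage germination was converted to a rating.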

[2] = test system: Venturia inaequalis; test: Spore germination test; type: cell-based; settings: VI, 48 hours
How it was run: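 Compound from acetone stock mixed into water agar at 40, 10, 2.5 and 1 ppm; plated quadrants inoculated with spore suspension in sterile water. Incubation 48 hours at 24° C, then percentage of germinated spores counted and converted to a germination rating.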

SMILES	Spore Germination Rating ([1]; 1.0 ppm)	Spore Germination Rating ([1]; 2.5 ppm)	Spore Germination Rating ([1]; 10 ppm)	Spore Germination Rating ([1]; 40 ppm)	Spore Germination Rating ([2]; 1.0 ppm)	Spore Germination Rating ([2]; 2.5 ppm)	Spore Germination Rating ([2]; 10 ppm)	Spore Germination Rating ([2]; 40 ppm)
CC(=O)c1cccc(Oc2nsnc(Cl)c2=O)c1 [Compound 48, 3-(3-acetylphenoxy)-5-chloro-4H--1,2,6-thiadiazin-4-one]	4 (80-100)	4 (80-100)	0 (0-10)	0 (0-10)	3 (60-80)	1 (10-40)	0 (0-10)	0 (0-10)
CC(=O)c1ccccc1Oc1nsnc(Cl)c1=O [Compound 49, 3-(2-acetylphenoxy)-5-chloro-4H--1,2,6-thiadiazin-4-one]	1 (10-40)	1 (10-40)	0 (0-10)	0 (0-10)	4 (80-100)	4 (80-100)	1 (10-40)	0 (0-10)
O=C(O)c1ccc(Oc2nsnc(Cl)c2=O)cc1 [Compound 50, 3-(4-carboxyphenoxy)-5-chloro-4H--1,2,6-thiadiazin-4-one]	4 (80-100)	4 (80-100)	4 (80-100)	4 (80-100)	4 (80-100)	4 (80-100)	4 (80-100)	0 (0-10)
Cc1cc(Oc2nsnc(Cl)c2=O)ccc1Cl [Compound 54, 3-chloro-5-(4-chloro-3-methylphenoxy)-4H--1,2,6-thiadiazin-4-one]	4 (80-100)	4 (80-100)	2 (40-60)	1 (10-40)	1 (10-40)	0 (0-10)	0 (0-10)	0 (0-10)
Cc1cc(Cl)ccc1Oc1nsnc(Cl)c1=O [Compound 55, 3-chloro-5-(4-chloro-2-methylphenoxy)-4H--1,2,6-thiadiazin-4-one]	4 (80-100)	3 (60-80)	1 (10-40)	1 (10-40)	1 (10-40)	0 (0-10)	0 (0-10)	0 (0-10)
Cc1ccc(Oc2nsnc(Cl)c2=O)c(Br)c1 [Compound 57, 3-[(2-bromo-4-methyl)-phenoxy]-5-chloro-4H--1,2,6-thiadiazin-4-one]	3 (60-80)	1 (10-40)	0 (0-10)	0 (0-10)	2 (40-60)	0 (0-10)	0 (0-10)	0 (0-10)
Cc1cc(Cl)c(Oc2nsnc(Cl)c2=O)cc1C [Compound 58, 3-chloro-5-[(2-chloro-4,5-dimethyl)phenoxy]-4H--1,2,6-thiadiazin-4-one]	3 (60-80)	0 (0-10)	0 (0-10)	0 (0-10)	2 (40-60)	1 (10-40)	0 (0-10)	0 (0-10)
Cc1cc(Oc2nsnc(Cl)c2=O)cc(C)c1Cl [Compound 59, 3-chloro-5-[(4-chloro-3,5-dimethyl)phenoxy]-4H--1,2,6-thiadiazin-4-one]	4 (80-100)	4 (80-100)	4 (80-100)	3 (60-80)	1 (10-40)	1 (10-40)	0 (0-10)	1 (10-40)
Cc1cc(Oc2nsnc(Cl)c2=O)cc(C)c1Br [Compound 60, 3-[(4-bromo-3,5-dimethyl)-phenoxy]-5-chloro-4H--1,2,6-thiadiazin-4-one]	4 (80-100)	3 (60-80)	3 (60-80)	3 (60-80)	2 (40-60)	1 (10-40)	0 (0-10)	0 (0-10)
